These results are taken from PMC3447753, “Relacin, a Novel Antibacterial Agent Targeting the Stringent Response” (PLoS Pathogens, 2012).

This assay deals with T1, Rel/Spo (D. radiodurans) (Deinococcus radiodurans, UniProt Q9RTC7).
T1 construct: gene DR_1838; full length, His-tagged (anti-His detection), expressed in E. coli BL21 CodonPlus
T1 sequence (Q9RTC7 1-787): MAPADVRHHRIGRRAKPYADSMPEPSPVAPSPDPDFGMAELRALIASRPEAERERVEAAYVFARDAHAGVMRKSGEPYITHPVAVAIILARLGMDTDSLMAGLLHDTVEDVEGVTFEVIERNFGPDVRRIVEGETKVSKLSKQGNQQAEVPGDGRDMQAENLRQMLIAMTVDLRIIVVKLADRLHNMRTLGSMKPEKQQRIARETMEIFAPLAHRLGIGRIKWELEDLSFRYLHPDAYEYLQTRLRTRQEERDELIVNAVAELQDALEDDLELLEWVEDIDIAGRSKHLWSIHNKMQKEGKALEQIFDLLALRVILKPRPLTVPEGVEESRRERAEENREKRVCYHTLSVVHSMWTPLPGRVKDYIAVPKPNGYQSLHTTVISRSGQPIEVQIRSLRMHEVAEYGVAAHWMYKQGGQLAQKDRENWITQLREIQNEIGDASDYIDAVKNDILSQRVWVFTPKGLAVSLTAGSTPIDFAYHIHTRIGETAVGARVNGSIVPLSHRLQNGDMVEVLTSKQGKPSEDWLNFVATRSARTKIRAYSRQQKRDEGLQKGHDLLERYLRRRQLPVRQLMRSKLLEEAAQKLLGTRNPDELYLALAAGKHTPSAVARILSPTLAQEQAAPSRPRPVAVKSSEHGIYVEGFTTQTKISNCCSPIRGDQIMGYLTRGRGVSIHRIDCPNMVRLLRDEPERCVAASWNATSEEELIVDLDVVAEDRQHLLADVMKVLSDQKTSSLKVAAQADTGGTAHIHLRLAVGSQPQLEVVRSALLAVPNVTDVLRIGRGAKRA
In words: (p)ppGpp synthesis from alpha-32P-GTP, PEI-TLC autoradiography. It counts as biochemical. As to conditions: 0.5 mM GTP, 4 mM ATP, 10 mM MgCl2, pH 7.4, isolated ribosomes; inhibitor concentration only in figure.

Molecules are shown by their SMILES.

Consider `CC(C)C(=O)Nc1nc2c(ncn2[C@H]2C[C@H](OC(=O)NCC(=O)NCC(=O)O)[C@@H](COC(=O)NCC(=O)NCC(=O)O)O2)c(=O)[nH]1` [Relacin], for which the “% inhibition at highest Relacin concentration” value is on record as ~ 80%.
